Laboratory results from BindingDB's records for patent US20250145589 (Sichuan Huiyu Pharmaceutical, 2025).

Columns and labels:
[1] = molecular target: Son of sevenless homolog 1/GTPase KRas [G12C] (Homo sapiens, UniProt P01116, G12C); test: HTRF KRASG12C/SOS1 Binding Assay
Protocol: The HTRF KRASG12C/SOS1 Binding Assay was used to measure the interaction between KRASG12C and SOS1 proteins, and evaluate the enzymatic activity of compounds against KRASG12C. The utilized proteins and assay reagents were obtained from the KRASG12C-SOS1 binding assay kits (Cisbio). Initially, a 2 mM stock solution of the test compound (dissolved in DMSO) was serially diluted in five-fold concentrations using DMSO to obtain eight working solutions 1 (200×). Subsequently, each of the eight working solutions 1 was further diluted in a 20-fold gradient by adding 5 μL into 95 μL of Diluent buffer, mixed completely with vortex mixer, resulting in eight working solutions 2 (10×). In a 384-well white flat-bottom plate, 4 μL of Tag2-KRASG12C solution, 2 μL of working solution 2 (10×) and 4 μL of Tag1-SOS1 solution were sequentially added to each well and mixed, followed by a 15-minute incubation at room temperature (RT). Subsequently, 5 μL of Anti-tag 1-Tb3+ stock solution and 5 μL of Anti-tag2-XL665 were added to each well, mixed, and incubated at 4° C. for 3 hours. […] The inhibition rate was calculated using the following formula:%Inhibitionrate= [(Rationegative-Ratiocompound)/(Rationegative-RatioBlank)]×100Data were analyzed using GraphPad Prism with log (inhibitor) vs. response-Variable Slope (four parameters) fitting calculations for IC50 values.

[2] = molecular target: T1, Phosphatidylinositol 4,5-bisphosphate 3-kinase catalytic subunit delta isoform (Homo sapiens, UniProt O00329); test: Inhibition of PI3Kdelta Efficacy Assay
T1 sequence (O00329 whole entry): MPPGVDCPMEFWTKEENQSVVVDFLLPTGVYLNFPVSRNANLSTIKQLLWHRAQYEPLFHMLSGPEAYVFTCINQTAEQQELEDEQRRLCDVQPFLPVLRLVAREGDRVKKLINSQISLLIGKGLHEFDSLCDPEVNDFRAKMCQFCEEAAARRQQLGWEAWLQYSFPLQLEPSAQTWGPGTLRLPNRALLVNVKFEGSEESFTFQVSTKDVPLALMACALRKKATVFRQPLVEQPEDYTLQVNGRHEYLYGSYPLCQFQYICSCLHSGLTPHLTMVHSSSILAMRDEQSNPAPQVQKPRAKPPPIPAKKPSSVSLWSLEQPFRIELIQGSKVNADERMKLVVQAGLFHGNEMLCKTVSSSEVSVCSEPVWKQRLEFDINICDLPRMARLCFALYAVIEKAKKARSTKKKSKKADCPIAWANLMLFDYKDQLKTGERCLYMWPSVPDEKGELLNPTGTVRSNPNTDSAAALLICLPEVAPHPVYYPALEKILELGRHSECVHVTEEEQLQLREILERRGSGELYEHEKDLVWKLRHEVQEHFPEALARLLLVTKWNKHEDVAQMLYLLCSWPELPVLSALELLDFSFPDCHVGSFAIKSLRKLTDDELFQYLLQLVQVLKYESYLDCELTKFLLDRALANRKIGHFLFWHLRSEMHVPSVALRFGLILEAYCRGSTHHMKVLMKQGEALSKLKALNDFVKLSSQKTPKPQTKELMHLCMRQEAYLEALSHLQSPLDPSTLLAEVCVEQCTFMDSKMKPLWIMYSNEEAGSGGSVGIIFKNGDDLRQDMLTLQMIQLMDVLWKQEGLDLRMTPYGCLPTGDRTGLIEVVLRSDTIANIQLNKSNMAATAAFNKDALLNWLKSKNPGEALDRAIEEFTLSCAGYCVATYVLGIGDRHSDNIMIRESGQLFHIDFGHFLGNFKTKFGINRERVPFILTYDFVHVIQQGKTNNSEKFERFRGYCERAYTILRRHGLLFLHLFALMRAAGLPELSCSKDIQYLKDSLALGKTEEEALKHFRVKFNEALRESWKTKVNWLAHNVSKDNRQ
Protocol: (§1) The ADP-Glo™ kinase assay was used to assess the inhibition of PI3Kδ with our compounds. The utilized proteins and assay reagents were obtained from the ADP-Glo™ Kinase Assay Kit (Promega). Initially, a 2 mM stock solution of the test compound (dissolved in DMSO) was serially diluted in five-fold concentrations using DMSO to obtain eight working solutions 1 (200×) Subsequently, each of the eight working solutions 1 was further diluted in a 20-fold gradient by adding 5 μL into 95 μL of ddH2O, resulting in eight working solutions 2 (10×). In a 384-well white flat-bottom plate, 2 μL of 2.5×PI3Kδ kinase solution and 1 μL of working solution 2 (10×) were added to each well and mixed, followed by a 15-minute incubation at room temperature (RT). Subsequently, 2 μL of 2.5×PI and ATP solution mixture were added to each well, mixed, and incubated at RT for 60 minutes. Then, 5 μL of ADP-Glo (containing 10 mM MgCl2) reagent was added to each well, mixed, and incubated at RT for 40 minutes. Finally, 10 μL of the Kinase Detection Reagent was added to each well, mixed, and incubated at RT for 40 minutes. Luminescence values were recorded using a multi-mode microplate reader with luminescence channel settings, and the inhibitory rate was calculated using the following formula:%Inhibitionrate=[(Negative-testcompound)/(Negative-Blank)]*100Data were analyzed using GraphPad Prism with log(inhibitor) vs. response—Variable Slope(four parameters) fitting calculations for IC50 values.

[3] = molecular target: Phosphatidylinositol 4,5-bisphosphate 3-kinase catalytic subunit alpha isoform (Homo sapiens, UniProt P42336); test: Inhibition of PI3Kalpha Efficacy assay
Protocol: as §1, with “PI3Kα” for “PI3Kδ”, “(200′).” for “(200×)”, “2.5×PI3Kα” for “2.5×PI3Kδ”, “minutes.Finally,” for “minutes. Finally,”, “[…]” for “IC50”

Sequence of Phosphatidylinositol 4,5-bisphosphate 3-kinase catalytic subunit alpha isoform (P42336 whole entry, canonical isoform): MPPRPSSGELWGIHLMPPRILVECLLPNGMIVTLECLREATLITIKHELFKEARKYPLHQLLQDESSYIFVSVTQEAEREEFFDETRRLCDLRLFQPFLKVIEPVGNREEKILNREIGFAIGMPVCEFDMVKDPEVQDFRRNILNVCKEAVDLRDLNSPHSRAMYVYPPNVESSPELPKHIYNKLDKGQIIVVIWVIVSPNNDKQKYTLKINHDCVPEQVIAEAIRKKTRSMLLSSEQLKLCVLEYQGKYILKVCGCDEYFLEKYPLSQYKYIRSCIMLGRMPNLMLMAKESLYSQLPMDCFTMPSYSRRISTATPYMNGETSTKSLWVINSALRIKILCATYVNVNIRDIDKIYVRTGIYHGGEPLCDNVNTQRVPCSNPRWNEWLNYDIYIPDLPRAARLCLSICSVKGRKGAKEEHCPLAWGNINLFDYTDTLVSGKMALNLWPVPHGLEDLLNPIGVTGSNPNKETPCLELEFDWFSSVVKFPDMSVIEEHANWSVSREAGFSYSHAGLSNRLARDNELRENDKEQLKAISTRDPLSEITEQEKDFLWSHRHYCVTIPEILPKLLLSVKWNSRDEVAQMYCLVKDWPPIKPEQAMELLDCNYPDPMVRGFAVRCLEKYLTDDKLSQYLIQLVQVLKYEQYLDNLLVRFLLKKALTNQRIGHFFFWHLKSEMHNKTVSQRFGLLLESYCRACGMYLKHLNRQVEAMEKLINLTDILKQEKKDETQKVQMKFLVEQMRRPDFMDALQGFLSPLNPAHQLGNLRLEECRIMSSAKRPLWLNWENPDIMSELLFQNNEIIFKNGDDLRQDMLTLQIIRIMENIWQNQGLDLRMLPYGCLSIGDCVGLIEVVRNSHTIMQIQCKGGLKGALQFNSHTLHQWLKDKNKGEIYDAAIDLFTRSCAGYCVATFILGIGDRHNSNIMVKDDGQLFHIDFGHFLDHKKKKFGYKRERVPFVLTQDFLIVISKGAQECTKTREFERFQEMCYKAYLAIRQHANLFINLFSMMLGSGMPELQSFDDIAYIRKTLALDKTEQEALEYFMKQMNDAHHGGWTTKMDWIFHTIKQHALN
Sequence of Son of sevenless homolog 1/GTPase KRas [G12C] (P01116 whole entry G12C): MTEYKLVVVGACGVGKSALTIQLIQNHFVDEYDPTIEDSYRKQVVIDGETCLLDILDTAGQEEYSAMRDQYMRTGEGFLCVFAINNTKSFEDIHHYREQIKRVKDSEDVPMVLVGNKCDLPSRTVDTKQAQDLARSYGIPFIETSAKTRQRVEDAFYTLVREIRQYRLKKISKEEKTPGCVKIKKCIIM
Sequence of Son of sevenless homolog 1/GTPase KRas [G12C] (Q07889 whole entry, further chain): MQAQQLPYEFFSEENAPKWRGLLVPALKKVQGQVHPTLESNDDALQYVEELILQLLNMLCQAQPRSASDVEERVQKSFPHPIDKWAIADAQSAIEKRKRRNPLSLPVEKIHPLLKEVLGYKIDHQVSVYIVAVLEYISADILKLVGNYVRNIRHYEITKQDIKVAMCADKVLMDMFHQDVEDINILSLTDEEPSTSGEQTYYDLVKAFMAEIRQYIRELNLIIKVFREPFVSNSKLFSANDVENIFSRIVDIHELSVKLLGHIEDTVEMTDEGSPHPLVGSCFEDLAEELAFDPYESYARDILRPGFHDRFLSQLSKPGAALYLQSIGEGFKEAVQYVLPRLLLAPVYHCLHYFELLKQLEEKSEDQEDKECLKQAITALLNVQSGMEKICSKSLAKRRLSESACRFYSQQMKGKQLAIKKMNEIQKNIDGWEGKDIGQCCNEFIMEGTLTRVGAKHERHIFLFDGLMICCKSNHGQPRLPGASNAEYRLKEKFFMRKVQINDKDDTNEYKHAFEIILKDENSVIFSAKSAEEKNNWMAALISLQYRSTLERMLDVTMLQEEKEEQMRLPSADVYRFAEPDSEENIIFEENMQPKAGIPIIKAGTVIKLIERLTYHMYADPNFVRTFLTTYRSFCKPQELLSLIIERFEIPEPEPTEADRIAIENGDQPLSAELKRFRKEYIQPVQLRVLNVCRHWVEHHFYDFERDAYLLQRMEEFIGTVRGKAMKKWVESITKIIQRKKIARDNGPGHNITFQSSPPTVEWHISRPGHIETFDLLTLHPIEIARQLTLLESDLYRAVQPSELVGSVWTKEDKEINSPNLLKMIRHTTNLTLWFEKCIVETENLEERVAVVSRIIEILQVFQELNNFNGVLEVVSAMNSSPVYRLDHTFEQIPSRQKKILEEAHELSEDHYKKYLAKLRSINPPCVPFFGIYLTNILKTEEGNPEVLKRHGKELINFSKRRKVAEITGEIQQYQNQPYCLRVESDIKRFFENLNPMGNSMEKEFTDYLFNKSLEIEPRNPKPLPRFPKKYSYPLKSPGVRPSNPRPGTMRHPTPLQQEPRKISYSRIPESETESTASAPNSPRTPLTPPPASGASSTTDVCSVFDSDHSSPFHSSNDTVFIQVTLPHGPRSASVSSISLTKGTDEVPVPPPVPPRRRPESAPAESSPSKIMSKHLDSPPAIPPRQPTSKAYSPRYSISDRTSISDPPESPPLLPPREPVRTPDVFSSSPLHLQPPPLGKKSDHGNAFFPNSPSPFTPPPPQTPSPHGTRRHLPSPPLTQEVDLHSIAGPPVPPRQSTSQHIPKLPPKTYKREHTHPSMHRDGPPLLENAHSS

Structure (SMILES)	IC50 [1] [nM]	IC50 [2] [nM]	IC50 [3] [nM]
COc1ncc(-c2ccc3ncnc(N4CCN(C(=O)/C=C/C(C)=O)C[C@@H]4C)c3c2)cc1NS(=O)(=O)c1ccc(F)cc1F [US20250145589, Example 8]	222	17.9	0.34
C=C(F)C(=O)N1CCN(c2ncnc3ccc(-c4cnc(OC)c(N(C)S(=O)(=O)c5ccc(F)cc5F)c4)cc23)CC1 [US20250145589, Example 79]	–	903	–
C=CS(=O)(=O)N1CCN(c2ncnc3ccc(-c4cnc(OC)c(NS(=O)(=O)c5ccc(F)cc5F)c4)cc23)CC1 [US20250145589, Example 207]	–	–	3.2
COc1ncc(-c2ccc3ncnc(N4CCN(C(=O)/C=C/C(C)=O)CC4)c3c2)cc1SS(=O)(=O)c1ccc(F)cc1F [US20250145589, Example 246]	159	13.8	2.24

Continued, values first:

IC50 [1] [nM]	IC50 [2] [nM]	IC50 [3] [nM]	Structure (SMILES)
96.7	85.3	11.3	COc1ncc(-c2ccc3ncnc(N4CCC5(CN(C(=O)/C=C/C(C)=O)C5)C4)c3c2)cc1NS(=O)(=O)c1ccc(F)cc1F [US20250145589, Example 13]
210	–	1.4	COc1ncc(-c2ccc3ncnc(N4CCN(C(=O)/C=C/C(C)=O)CC4)c3n2)cc1NS(=O)(=O)c1cnccc1C [US20250145589, Example 223]
